In ChEMBL document CHEMBL2057197, “Synthesis and evaluation of water-soluble resveratrol and piceatannol via BGLation” (Bioorg Med Chem Lett, 2012):
Calls of active or inactive are those of the source. No cut-off for these calls is given here.

What was measured:
3T3-L1 [1] = experiment: Reduction in triglyceride level in mouse 3T3L1 cells at 10 to 50 uM after 48 hrs; type: functional, cell-based
3T3-L1 [2] = experiment: Induction of mitochondrial fusion in mouse 3T3L1 cells at 10 to 50 uM after 48 hrs by green Fm-staining; type: functional, cell-based

Compound	Activity (3T3-L1 [1])	Activity (3T3-L1 [2])
COc1ccc(/C=C/c2cc(O)cc(OCc3cn(C(COC(CO)CO)COC(CO)CO)nn3)c2)cc1	inactive	inactive
OCC(CO)OCC(COC(CO)CO)n1cc(COc2cc(O)cc(/C=C/c3ccc4c(c3)OCO4)c2)nn1	inactive	Active
Oc1cc(O)cc(/C=C/c2ccc(O)c(O)c2)c1	Active	Active
OCC(CO)OCC(COC(CO)CO)n1cc(COc2cc(O)cc(/C=C/c3ccc(O)cc3)c2)nn1	inactive	inactive
OCC(CO)OCC(COC(CO)CO)n1cc(COc2cc(O)cc(/C=C/c3ccc(O)c(O)c3)c2)nn1	Active	Active
